Patent publication US9409952B2, “Peptide-compound cyclization method” (Chugai Seiyaku Kabushiki Kaisha, priority 2011, dated 2016)
Starred links: 1 amine or outer side, 2 acyl side, 3 side chain; linkers in the order of their positions; H or OH if unused. Positions of bridges follow the written chain, without caps; N, C: chain ends. Non-standard residues stand in square brackets, D forms with d. Residues, ends and D or L forms follow the SMILES beside them. *: point of attachment. NMeF = CN[C@@H](Cc1ccccc1)C(=O)O; NMeβAla = CN(CCC(=O)[*:2])[*:1]; NMeL = CN[C@@H](CC(C)C)C(=O)O; NMeV = CN[C@H](C(=O)O)C(C)C; NMeA = CN[C@@H](C)C(=O)O; Piperidide = C1CCN(*)CC1; dNMeA = CN[C@H](C)C(=O)O; Sar = CNCC(=O)O

Assays:
[1] = PAMPA (parallel artificial membrane permeability assay); format: in vitro ADME; details: PAMPA; membrane permeation rate (Pe); 50 mM MOPSO buffer pH 6.5 with 5.0% glycocholic acid, 37° C., 18 hours; read-out: iPAMPA Pe
Summary of the method: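 Artificial membrane was 10% (w/v) egg lecithin plus 0.5% (w/v) cholesterol in dodecane on a PVDF filter. A 10 mM DMSO stock was added at 0.5% (v/v) to donor buffer (50 mM MOPSO, pH 6.5, 5.0% glycocholic acid). After 18 h at 37 °C, LC/MS or LC/UV gave donor and acceptor levels for Pe.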

[2] = Metabolic stability in human hepatic microsome; format: in vitro ADME; details: microsomes, pH 7.4; human hepatic microsome, NADPH(+); read-out: CL NADPH(+)

| SMILES | Papp at 18 hours, 50 µM [1] | microsomal CLint at 1 uM [2] |
| --- | --- | --- |
| CC(C)C[C@H]1C(=O)N[C@@H](C)C(=O)N(C)[C@@H](C)C(=O)N[C@H](C(=O)N(C)[C@@H](Cc2ccccc2)C(=O)N[C@@H](C)C(=O)N2CCCCC2)CC(=O)N(C)[C@@H](C)C(=O)N(C)[C@@H](C(C)C)C(=O)N(C)[C@@H](C)C(=O)N[C@@H]([C@@H](C)O)C(=O)N(C)[C@@H](C)C(=O)N[C@@H](Cc2ccccc2)C(=O)N1C [DP-458] ([NMeA][NMeV][NMeA]T[NMeA]F[NMeL]A[NMeA]D[NMeF]A-Piperidide; lactam N-10) | 7.7 ×10⁻⁶ cm/s | 10 µL/min/mg |
| CC[C@H](C)[C@@H]1NC(=O)[C@H](CC(C)C)N(C)C(=O)CN(C)C(=O)[C@H]([C@@H](C)O)NC(=O)[C@H](C)N(C)C(=O)[C@H](Cc2ccccc2)NC(=O)[C@H](CC(C)C)N(C)C(=O)[C@H](C)N(C)C(=O)C[C@@H](C(=O)N(C)[C@@H](Cc2ccccc2)C(=O)N(C)[C@@H](Cc2ccccc2)C(=O)N[C@@H](C)C(=O)N2CCCCC2)NC(=O)[C@H](C(C)C)N(C)C1=O [DP-459] ([NMeA][NMeL]F[NMeA]T[Sar][NMeL]I[NMeV]D[NMeF][NMeF]A-Piperidide; lactam N-10) | 19 ×10⁻⁶ cm/s | 143 µL/min/mg |
| CC(C)[C@@H]1NC(=O)[C@H](C)N(C)C(=O)[C@H](Cc2ccccc2)N(C)C(=O)[C@H](C)N(C)C(=O)[C@H]([C@@H](C)O)NC(=O)[C@H](C)N(C)C(=O)[C@H](C)N(C)C(=O)C[C@@H](C(=O)N(C)[C@@H](Cc2ccccc2)C(=O)N(C)[C@@H](Cc2ccccc2)C(=O)N[C@@H](C)C(=O)N2CCCCC2)NC(=O)[C@H](C)N(C)C(=O)[C@H](C)N(C)C1=O [DP-460] ([NMeA][NMeA]T[NMeA][NMeF][NMeA]V[NMeA][NMeA]D[NMeF][NMeF]A-Piperidide; lactam N-10) | 5.1 ×10⁻⁶ cm/s | 17 µL/min/mg |
| CC(C)C[C@@H]1NC(=O)[C@H](CC(C)C)N(C)C(=O)CCN(C)C(=O)C[C@@H](C(=O)N(C)[C@@H](Cc2ccccc2)C(=O)N[C@@H](C)C(=O)N2CCCCC2)NC(=O)[C@H]([C@@H](C)O)NC(=O)[C@H](CC(C)C)N(C)C(=O)[C@H](Cc2ccccc2)NC(=O)[C@H](Cc2ccccc2)N(C)C(=O)[C@H](CC(C)C)N(C)C1=O [DP-461] ([NMeβAla][NMeL]L[NMeL][NMeF]F[NMeL]TD[NMeF]A-Piperidide; lactam N-9) | 33 ×10⁻⁶ cm/s | 78 µL/min/mg |
| CC(C)C[C@H]1C(=O)N(C)[C@@H](C)C(=O)N[C@@H]([C@@H](C)O)C(=O)N(C)[C@@H](C)C(=O)N[C@H](C(=O)N(C)[C@@H](Cc2ccccc2)C(=O)N[C@@H](C)C(=O)N2CCCCC2)CC(=O)N(C)[C@H](C)C(=O)N(C)[C@@H](Cc2ccccc2)C(=O)N(C)[C@@H](C)C(=O)N[C@@H](C(C)C)C(=O)N1C [DP-462] ([dNMeA][NMeF][NMeA]V[NMeL][NMeA]T[NMeA]D[NMeF]A-Piperidide; lactam N-9) | 9.5 ×10⁻⁶ cm/s | 17 µL/min/mg |
| CC(C)C[C@H]1C(=O)N(C)[C@@H](C)C(=O)N[C@H](C(=O)N(C)[C@@H](Cc2ccccc2)C(=O)N(C)[C@@H](Cc2ccccc2)C(=O)N[C@@H](C)C(=O)N2CCCCC2)CC(=O)N(C)[C@H](C)C(=O)N(C)[C@@H](Cc2ccccc2)C(=O)N(C)CC(=O)N[C@@H]([C@@H](C)O)C(=O)N[C@@H](C)C(=O)N(C)[C@@H](C)C(=O)N1C [DP-463] ([dNMeA][NMeF][Sar]TA[NMeA][NMeL][NMeA]D[NMeF][NMeF]A-Piperidide; lactam N-9) | 3.1 ×10⁻⁶ cm/s | 10 µL/min/mg |
| CC(C)C[C@H]1C(=O)N[C@@H]([C@@H](C)O)C(=O)N(C)[C@@H](C)C(=O)N[C@@H](C(C)C)C(=O)N(C)[C@@H](C)C(=O)N(C)[C@@H](C)C(=O)N[C@H](C(=O)N(C)[C@@H](Cc2ccccc2)C(=O)N(C)[C@@H](Cc2ccccc2)C(=O)N[C@@H](C)C(=O)N2CCCCC2)CC(=O)N(C)[C@@H](C)C(=O)N(C)[C@@H](Cc2ccccc2)C(=O)N1C [DP-464] ([NMeA][NMeF][NMeL]T[NMeA]V[NMeA][NMeA]D[NMeF][NMeF]A-Piperidide; lactam N-9) | 25 ×10⁻⁶ cm/s | 30 µL/min/mg |
